# What was measured:
# [1] = reported, cited from earlier work
# [2] = Quantum yields of photoinduced CH3CN ligand exchange in H2O (Example 12); assay type: physicochemical; settings: for quantum yield, first CH3CN ligand exchange (Φ500) / quantum yield, first CH3CN ligand exchange (Φ550): H2O; for quantum yield, first CH3CN ligand exchange (Φ500): 500 nm irradiation
# Procedure: The quantum yields (Φ) for photoinduced ligand exchange of the first CH3CN in H2O were measured for complexes 12.1 and 12.3 with 500 nm and 550 nm irradiation wavelengths using the appropriate bandpass filters. The moles of complex reacted was quantitated using electronic absorption spectroscopy by monitoring the decrease in MLCT absorption maximum of each complex as a function of irradiation time (moles reacted/s) at early irradiation times, and Reinecke's salt was used as an actinometer to determine the intensity (Einstein/s) of the Xe arc lamp at the corresponding wavelengths. The Φ for the photoinduced ligand exchange of the second CH3CN ligand was measured for 12.1 using 400 nm and 550 nm irradiation wavelengths using the appropriate bandpass filters monitoring the decrease in the MLCT absorption peak of the mono-aqua intermediate, 12.4.
# [3] = Dark controls: ligand exchange in the absence of light; assay type: physicochemical; settings: H2O, room temperature (˜22° C.)
# Procedure: FIG. 23. Dark Control with respect to FIG. 22 showing that the nitrile ligands are not released under similar conditions in the absence of light for a period of 24 hours.
# Photochemistry. The photoreactivity of 12.1-12.3 was evaluated by monitoring the changes to the electronic absorption and ^1H NMR spectra as a function of irradiation time. […] Complexes 12.1-12.3 are inert to ligand substitution in the dark at room temperature under similar experimental conditions. For the symmetrical complexes 12.2 and 12.3, one resonance is observed in CD3CN corresponding to the methyl protons of both bound acetonitrile ligands at 2.22 ppm and 2.28 ppm, respectively. During the photolysis of 12.2 in CD3CN with λirr≧455 nm, the resonance at 2.22 ppm decreases with increasing irradiation time, while a peak at 1.96 ppm corresponding to free CH3CN in CD3CN increases in intensity at the same rate. The photolysis of 12.3 in CD3CN with λirr≧610 nm yields similar results with the decrease of the peak at 2.28 ppm with the concomitant increase of the free CH3CN resonance at 1.96 ppm. The intensity of the peak corresponding to free CH3CN at 1.96 ppm integrates to two ligands at the end of the photolysis for both 12.2 and 12.3 in CD3CN, indicative that that both CH3CN ligands in 12.2 and 12.3 are exchanged. […] Moreover, no shifts are observed in the aromatic region as the reaction progresses. […]
# papain = target: T1, papain (Carica papaya, UniProt P00784); test: Papain inhibition, chromogenic substrate BAPNA, light vs dark; assay type: biochemical
# T1 sequence (P00784 134-345): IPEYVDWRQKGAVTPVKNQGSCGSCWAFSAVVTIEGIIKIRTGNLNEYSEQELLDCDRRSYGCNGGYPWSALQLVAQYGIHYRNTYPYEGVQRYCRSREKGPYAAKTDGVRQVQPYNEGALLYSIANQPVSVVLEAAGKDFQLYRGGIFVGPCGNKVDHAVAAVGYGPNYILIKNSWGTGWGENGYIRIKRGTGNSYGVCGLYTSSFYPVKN
# Procedure: FIG. 5. […] Data points represent an average of three reactions and error bars are standard deviations.
# Papain Inhibition Studies. The inhibition studies with papain were carried out following a modified procedure by Gütschow and coworkers (Löser et al., J. Med. Chem. 2005, 48, 7688-7707). […] A 0.25 mM papain stock solution was prepared in 0.1 mM HCl and kept frozen. For each experiment, the stock solution was diluted 250 times and activated for 45 min at 25° C. with a 0.1 M phosphate pH 6.5, 15 mM DTT and 2.5 mM EDTA buffer solution. A 10.0 mM solution of BAPNA in DMSO was prepared daily and plated (final concentration 1.0 mM). The inhibitor was plated as a 1% DMSO solution in the assay buffer.
# The photolysis was conducted for 10 minutes (with gentle shaking of the plate every 2-3 minutes) using a 250 W tungsten halogen lamp (Osram Xenophot HLX) powered by a 24 V power supply. The irradiation wavelength was selected by placing a bandpass filter (395 nm cutoff) between the lamp and the sample, along with a 10 cm water cell to absorb infrared light. After photolysis, the reaction was initiated by addition of 65 μL of enzyme (final volume 100 μL, final enzyme concentration 0.65 μM). The absorbance changes due to the hydrolysis product p-nitroaniline (pNA) were measured at 405 nm every 2 min for 14 min (8 measures) at 25° C.
# human cathepsin B = target: T2, human cathepsin B (Homo sapiens, UniProt P07858); test: Cathepsin B inhibition, Z-Arg-Arg-AMC, light vs dark; assay type: biochemical; settings: without irradiation (dark); pH 6.0
# T2 construct: Purified cathepsin B (human liver) was obtained from Enzo Life Sciences; purchased Enzo Life Sciences; host or cells: human liver (tissue-purified)
# From the text: (§1) The irradiation wavelength was selected by placing a bandpass filter (395 nm cutoff) between the lamp and the sample, along with a 10 cm water cell to absorb infrared light.
# human cathepsin K [4] = target: T3, human cathepsin K (Homo sapiens, UniProt P43235); test: Cathepsin K inhibition, Z-Gly-Pro-Arg-AMC, light vs dark; assay type: biochemical; settings: without irradiation (dark); pH 5.5
# T3 sequence (P43235 115-329): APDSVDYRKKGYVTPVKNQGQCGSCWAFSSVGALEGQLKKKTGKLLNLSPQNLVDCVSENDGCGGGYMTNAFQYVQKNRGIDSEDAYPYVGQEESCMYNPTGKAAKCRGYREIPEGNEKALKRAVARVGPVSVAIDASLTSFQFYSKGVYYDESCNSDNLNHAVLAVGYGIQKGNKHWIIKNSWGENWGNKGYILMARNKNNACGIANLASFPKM
# Procedure: Cathepsins B, K and L were then examined for photoinduced inhibition with V. IC50 values for 1 and V (with and without irradiation) were determined in aqueous buffer at pH 5.5 for cathepsins L and K, and pH 6.0 for cathepsin B using fluorogenic substrates selective for each enzyme (Table 1). […] Control experiments show some level of inhibition by [Ru^II(bpy)2(MeCN)2](PF6)2, which may explain the lower ratios for dark vs. light conditions observed with cathepsins vs. papain.
# The IC50 values represent the average from three independent experiments. […] Activities were determined with the fluorogenic substrates Z-Arg-Arg-AMC (cathepsin B), Z-Gly-Pro-Arg-AMC (cathepsin K) and Z-Phe-Arg-AMC (cathepsin L) (where AMC is aminomethylcoumarin). […]
# Cathepsin Inhibition Studies. Cathepsin enzyme activity was determined from kinetic measurements performed by fluorometric detection of the hydrolysis product aminomethylcoumarin (AMC) at 37° C. every 2 min for 14 min (8 measures). […]
# The photolysis was conducted for 10 minutes (with gentle shaking of the plate every 2-3 min) using a 250 W tungsten halogen lamp (Osram Xenophot HLX) powered by a 24 V power supply. […] Cathepsin enzyme activity was determined from kinetic measurements performed by fluorometric detection of the hydrolysis product AMC at 37° C. every 2 min for 14 min (8 measures) and MAX RFU slope values used for plotting (FIG. 7).
# human cathepsin L = target: T4, human cathepsin L (Homo sapiens, UniProt P07711); test: Cathepsin L inhibition, Z-Phe-Arg-AMC, light vs dark; assay type: biochemical; settings: without irradiation (dark); pH 5.5
# T4 construct: purchased Sigma
# T4 sequence (P07711 114-333): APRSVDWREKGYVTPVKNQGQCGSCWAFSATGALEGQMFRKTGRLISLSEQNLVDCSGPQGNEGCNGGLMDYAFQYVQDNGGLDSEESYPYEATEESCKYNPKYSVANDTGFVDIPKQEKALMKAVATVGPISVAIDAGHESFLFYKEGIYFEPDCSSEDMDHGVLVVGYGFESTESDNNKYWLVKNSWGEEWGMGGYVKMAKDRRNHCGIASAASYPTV
# From the text: as §1
# [5] = target: T5, human cathepsin B in DU145 lysates (Homo sapiens, UniProt P07858); test: Cathepsin B activity in DU145 lysates, Z-Arg-Arg-AMC; assay type: biochemical; settings: DU145 lysate, without irradiation (dark)
# T5 construct: endogenous in cells; host or cells: DU145 prostate carcinoma cells (ATCC), lysate
# From the text: as §1
# [6] = target: T6, human cathepsin B in hBMSC lysates (Homo sapiens, UniProt P07858); test: Cathepsin B activity in hBMSC lysates, Z-Arg-Arg-AMC; assay type: biochemical; settings: hBMSC lysate, without irradiation (dark)
# T6 construct: lysates from primary human bone marrow stromal cells (hBMSC), an important source of cathepsin activity; endogenous in cells; host or cells: primary human bone marrow stromal cells (hBMSC), lysate
# From the text: as §1
# BMM cells = test: MTT cell viability, BMM cells; assay type: cell-based, murine; settings: 1 nM-100 μM, light or dark, after 24 h
# Procedure: In order to gain more insight into the biological behavior of the caged inhibitor, effects of VI and its byproducts on cell viability in BMM cells were determined under light and dark conditions. BMM cells were treated with either VI or cis-[Ru(bpy)2(MeCN)2](PF6)2 as a control (1 nM-100 μM), incubated for 30 min, left in the dark or irradiated with a tungsten halogen lamp for 15 min and then washed, using the same protocol as the confocal microscopy studies shown in FIG. 15. After 24 h viabilities were determined using the MTT assay (FIG. 17).
# (§2) FIG. 6. Cytotoxicity of cis-[Ru(bpy)2(2)2]Cl2 (3) and the control compound cis-[Ru(bpy)2(MeCN)2](PF6)2 on BMM cells (A-B) and prostate cancer PC3 cells (C-D). […] Cell viability was determined using the MTT assay after 24 h for BMM cells and 72 h for PC3 cells, and is reported relative to control with only buffer added. Error bars represent the standard deviations of triplicate wells, and data are representative of three independent experiments.
# [7] = system: prostate cancer PC3 cells; test: MTT cell viability, PC3 cells; assay type: cell-based; settings: 1 nM-100 μM, light or dark, up to 72 h
# Procedure: as §2
# These effects are highly dependent on the nature of ligands bound to ruthenium, and with some compounds treatment for up to 72 h is necessary to observe growth inhibitory effects. Later time points were not examined with BMM cells due to complications in maintaining these cells in culture over long periods of time, with or without VI.
# human cathepsin K [8] = target: T3, human cathepsin K; test: Cathepsin K inhibition by the Ru(TPA)-caged inhibitor, 365 nm light (Example 10); assay type: biochemical; settings: 500 μM, highest concentration surveyed, light and dark
# Procedure: Complex 10.2 acts as a potent, photoactivated inhibitor of human cathepsin K. IC50 values were determined for 10.2 and 10.3 under dark conditions, and upon irradiation with 365 nm light (FIG. 20).
molecule,measurement,setting,value
N#Cc1c[nH]c(=O)[nH]c1=O.N#Cc1c[nH]c(=O)[nH]c1=O.[Cl-].[Cl-].[Ru+2].c1ccc(-c2ccccn2)nc1.c1ccc(-c2ccccn2)nc1 [cis-[Ru(bpy)2(5-cyanouracil)2]Cl2],quantum yield for formation of the mono-aqua species (ΦR→I),[1],0.16(4)
cis-[Ru(bpy)(biq)(CH3CN)(H2O)]^2+ [12.4],"quantum yield, exchange of the remaining CH3CN ligand (Φ400)","[2]; 400 nm irradiation, to the bis-aqua complex 12.5",0.0045(1)
same,"quantum yield, exchange of the remaining CH3CN ligand (Φ550)","[2]; 550 nm irradiation, to the bis-aqua complex 12.5",0.0014(5)
same,stability in the dark,[3],stable in the dark for up to 6 hours
"CC(=O)N[C@@H](Cc1ccccc1)C(=O)NCC#N [compound 1, (S)-2-Acetamido-N-(cyanomethyl)-3-phenylpropanamide]",IC50,"papain; without irradiation, phosphate buffer pH 6.5, enzyme 650 nM",0.638 µM
same,IC50,human cathepsin B,133 µM
same,IC50,human cathepsin K [4],12 µM
same,IC50,human cathepsin L,72 µM
same,IC50,[5],182 µM
same,IC50,[6],183 µM
"CC#N.CC#N.F[P-](F)(F)(F)(F)F.F[P-](F)(F)(F)(F)F.[Ru+2].c1ccc(-c2ccccn2)nc1.c1ccc(-c2ccccn2)nc1 [cis-[Ru(bpy)2(MeCN)2](PF6)2, reference compound]",IC50,"papain; control complex, same profile under light and dark conditions",> 500 µM
same,cell viability (MTT),BMM cells,no effects on viability
same,growth inhibitory effects (MTT),[7],not observed
CC#N.CC#N.[Cl-].[Cl-].[Ru+2].c1ccc(-c2ccccn2)nc1.c1ccc(-c2ccccn2)nc1 [cis-[Ru(bpy)2(MeCN)2]Cl2],overall photoaquation quantum yield (ΦR→P),[1]; λirr=400 nm,0.21
[Ru(TPA)(CH3CN)2](PF6)2 [10.1],inhibition of cathepsin K,human cathepsin K [8],no inhibition
"CC#N.CC#N.F[P-](F)(F)(F)(F)F.F[P-](F)(F)(F)(F)F.[Ru+2].c1ccc2nc(-c3ccc4ccccc4n3)ccc2c1.c1ccc2nc(-c3ccc4ccccc4n3)ccc2c1 [12.3, [Ru(biq)2(CH3CN)2](PF6)2]","quantum yield, first CH3CN ligand exchange (Φ500)",[2],0.24(1)
same,"quantum yield, first CH3CN ligand exchange (Φ550)",[2]; 550 nm irradiation,0.150(8)
"CC#N.CC#N.F[P-](F)(F)(F)(F)F.F[P-](F)(F)(F)(F)F.[Ru+2].c1cnc2c(c1)ccc1cccnc12.c1cnc2c(c1)ccc1cccnc12 [12.2, [Ru(phen)2(CH3CN)2](PF6)2]","quantum yield, first CH3CN ligand exchange (Φ400)",[2]; 400 nm irradiation,0.22(1)
[Ru(biq)(phen)(CH3CN)2](PF6)2 [12.1],"quantum yield, first CH3CN ligand exchange (Φ500)",[2],0.26(1)
same,"quantum yield, first CH3CN ligand exchange (Φ550)",[2]; 550 nm irradiation,0.140(5)

# — patent publication US9593138B2, “Nitrile-containing enzyme inhibitors and ruthenium complexes thereof” (Wayne State University, priority 2012, dated 2017)
